From patent US8933234B2, “O-amino benzonitrile compounds, method for preparing same and uses thereof” (Hangzhou Udragon Chemical Co., Ltd., priority 2011, dated 2015)

How the values were obtained:
[1] = tested on: Diamondback moth; assay: Insecticidal effect on diamondback moth (cabbage leaf disc dip test); type: in vivo; details: for Insecticidal Effect (%) Diamondback moth (1 mg/L): leaf disc immersed 10 seconds, larvae, mortality; for mortality at 1 µg/mL: Plutella xylostella, foliar, 72 h, concentration of 1 mg/L, 3 days
Method: (§1) The compound to be tested dissolved in acetone and 1‰ Tween-80 solution, and was formulated to 50 ml of the test solution with desired concentration. The cabbage leaves having been cleaned and dried were made into leaf disc with diameter of 1 cm with hole puncher. The leaf disc were immersed in the drug liquid for 10 seconds and then removed, dried naturally, loaded in the culture dish. 10 […] diamondback moth larvae were introduced per dish and repeated for three times. After the treatment, the dishes were placed into a room with temperature of 20° C., relative humidity of 60-70% and without illumination to take an indoor culture. The survival of insects was surveyed and the mortality was calculated.

[2] = tested on: pink stem borer; assay: Insecticidal effect on pink stem borer (method of Test Example 1); type: in vivo; details: for Insecticidal Effect (%) pink stem borer (2 mg/L): leaf disc immersed 10 seconds, mortality
Method: [The procedure below names another organism; the source lists this organism under the same test.] as §1

SMILES	Insecticidal Effect (%) Diamondback moth (1 mg/L) [1]	Insecticidal Effect (%) pink stem borer (2 mg/L) [2]	mortality at 1 µg/mL [1]	mortality to pink stem borer in 3 days ([2]; concentration of 2 mg/L, 3 days)
Cc1cc(Cl)cc(C#N)c1NC(=O)c1cc(Br)nn1-c1ncc(Cl)cc1Cl [Compound I-2]	80%	50%	–	–
N#Cc1cc(Cl)cc(Cl)c1NC(=O)c1cc(Br)nn1-c1ncc(Cl)cc1Cl [Compound I-5]	100%	70%	100%	–
Cc1cc(Cl)cc(C#N)c1NC(=O)c1cc(Br)nn1-c1ncc(Cl)cc1F [Compound I-3]	100%	85%	100%	–
Cc1cc(Cl)cc(C#N)c1NC(=O)c1cc(Br)nn1-c1ncc(C(F)(F)F)cc1Cl [Compound I-7]	90%	80%	–	–
Cc1cc(Cl)cc(C#N)c1NC(=O)c1cc(Br)nn1-c1ncccc1Cl [Compound I-1]	50%	40%	–	–
N#Cc1cc(Cl)cc(Cl)c1NC(=O)c1cc(Br)nn1-c1ncccc1Cl [Compound I-4]	100%	98%	100%	98%
N#Cc1cc(Cl)cc(Cl)c1NC(=O)c1cc(Br)nn1-c1ncc(Cl)cc1F [Compound I-6]	100%	90%	100%	–
